13 molecules from US7632845B2, “Phenyl quinolines and their use as estrogenic agents” (Wyeth, priority 2003, dated 2009) can be followed below.

One assay has as its target T1, ERβ (Homo sapiens, UniProt Q92731).
T1 construct: made in house; host or cells: E. coli
Put plainly: Competition with [3H]-17β-estradiol for ERβ ligand binding domain. The settings on record: for IC50: crude E. coli lysate expressing human ERβ LBD (D, E, & F), 2 nM [3H]-17β-estradiol, 5-15 hours at room temperature; for α/β: receptor selectivity, ratio ERα IC50 / ERβ IC50. On the procedure: (§1) Representative examples of the invention were evaluated for their ability to compete with 17β-estradiol for both ERα and ERβ. This test procedure provides the methodology for one to determine whether a particular compound binds to the estrogen receptor (and is therefore “estrogenic”) and whether there is selectivity for ERα or ERβ. […] 17β-estradiol is included as a standard reference for compalison. The procedure used is briefly described below. A crude lysate of E. coli expressing the estrogen receptor ligand binding domains (D, E, & F) of human ERα or ERβ was prepared. Both receptors and compounds were diluted in 1× Dulbecco's PBS (DPBS) supplemented with 1 mM EDTA. Using a high binding masked microtiter plate, 100 uL of receptor (1 uG/well) was combined with 2 nM [^3H]-17β-estradiol and various concentrations of compound. After between 5 and 15 hours at room temperature, the plates were washed with DPBS/1 mM EDTA and bound radioactivity determined by liquid scintillation counting.

The target of the next assay is T2, ERα (Homo sapiens, UniProt P03372).
T2 construct: made in house; host or cells: E. coli
T2 sequence (P03372 311-547 limits assumed): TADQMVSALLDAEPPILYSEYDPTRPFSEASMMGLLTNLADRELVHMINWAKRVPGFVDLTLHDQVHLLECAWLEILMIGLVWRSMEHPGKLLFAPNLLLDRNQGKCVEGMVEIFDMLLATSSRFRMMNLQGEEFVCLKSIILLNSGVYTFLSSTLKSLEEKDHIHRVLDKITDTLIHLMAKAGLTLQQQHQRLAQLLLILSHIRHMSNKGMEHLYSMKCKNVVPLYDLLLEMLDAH
The assay can be described thus: Competition with [3H]-17β-estradiol for ERα ligand binding domain. Conditions: crude E. coli lysate expressing human ERα LBD (D, E, & F); 2 nM [3H]-17β-estradiol; 5-15 hours at room temperature. On the procedure: as §1

T1 sequence (Q92731 264-498 limits assumed): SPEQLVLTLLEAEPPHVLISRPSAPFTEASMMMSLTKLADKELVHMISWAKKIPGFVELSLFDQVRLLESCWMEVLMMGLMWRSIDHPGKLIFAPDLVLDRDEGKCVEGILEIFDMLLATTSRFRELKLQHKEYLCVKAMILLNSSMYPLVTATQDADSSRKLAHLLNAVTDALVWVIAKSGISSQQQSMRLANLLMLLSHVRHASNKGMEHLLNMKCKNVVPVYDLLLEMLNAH

For orientation: IC50 means the concentration at which inhibition is half-maximal. Read a high IC50 as a need for much substance. Consider `Oc1cc(Br)c2nc(-c3ccc(O)c(F)c3)cc(Cl)c2c1` [Cpd 44, 8-Bromo-4-chloro-2-(3-fluoro-4-hydroxyphenyl)-quinolin-6-ol], for which, at ERβ, the IC50 is 0.54 nM and the α/β is on record as 57. The molecule further returned an IC50 on ERα of 31 nM.

Turning to `Oc1cc(Cl)c2nc(-c3ccc(O)c(F)c3)cc(Br)c2c1` [Cpd 45a, 4-Bromo-8-chloro-2-(3-fluoro-4-hydroxyphenyl)quinolin-6-ol], at ERβ, the IC50 is 0.35 nM and the α/β was 53. Further, on ERα, the IC50 stood at 18.7 nM.

Consider `Oc1cc(Br)c2nc(-c3ccc(O)c(F)c3)cc(Br)c2c1` [Cpd 45b, 4,8-Dibromo-2-(3-fluoro-4-hydroxyphenyl)quinolin-6-ol], for which, on ERβ, the IC50 was found to be 1.7 nM and the α/β amounted to 7. The IC50 at ERα amounted to 11.6 nM.

Take `N#Cc1cc(-c2ccc(O)c(F)c2)nc2c(Cl)cc(O)cc12` [Cpd 47, 8-Chloro-4-cyano-2-(3-fluoro-4-hydroxyphenyl)quinolin-6-ol]: at ERβ, the IC50 was 1.7 nM and the α/β was determined as 113. This molecule also returned a 50% inhibitory concentration (IC50) at ERα of 192 nM.

Turning to `C#Cc1cc(-c2ccc(O)c(F)c2)nc2c(Cl)cc(O)cc12` [Cpd 48, 8-Chloro-4-ethynyl-2-(3-fluoro-4-hydroxyphenyl)quinolin-6-ol], at ERβ, the IC50 stood at 0.75 nM and the α/β was found to be 50. The IC50 at ERα is 37 nM.

On to `CCCCC#Cc1cc(-c2ccc(O)c(F)c2)nc2c(Cl)cc(O)cc12` [Cpd 49, 8-Chloro-2-(3-fluoro-4-hydroxyphenyl)-4-hex-1-ynylquinolin-6-ol], for which, on ERβ, the IC50 was 21 nM and the α/β came out at 14. Besides, the IC50 on ERα is 304 nM.

For `C=Cc1cc(-c2ccc(O)c(F)c2)nc2c(Cl)cc(O)cc12` [Cpd 50, 8-Chloro-2-(3-fluoro-4-hydroxyphenyl)-4-vinylquinolin-6-ol], the IC50 at ERβ is 0.95 nM; on ERα it was 75 nM. Further, the α/β on ERβ is given as 79.

Take `N#Cc1ccc(-c2cc(-c3ccc(O)c(F)c3)nc3c(Cl)cc(O)cc23)cc1` [Cpd 51, 8-Chloro-4-(4-cyanophenyl)-2-(3-fluoro-4-hydroxyphenyl)quinolin-6-ol]: on ERβ, the IC50 is 37 nM and the α/β turned out to be 56. The same molecule had an IC50 on ERα of 2070 nM.

With `COc1ccc(-c2cc(-c3ccc(O)c(F)c3)nc3c(Cl)cc(O)cc23)cc1` [Cpd 52, 8-Chloro-2-(3-fluoro-4-hydroxyphenyl)-4-(4-methoxyphenyl)quinolin-6-ol], on ERβ, the IC50 stood at 13 nM and the α/β is given as 15. Moreover, the IC50 on ERα came to 195 nM.

On to `N#Cc1cc(O)cc2c(Cl)cc(-c3ccc(O)c(F)c3)nc12` [Cpd 56, 4-Chloro-8-cyano-2-(3-fluoro-4-hydroxyphenyl)quinolin-6-ol], for which, on ERβ, the IC50 worked out at 1.1 nM and the α/β came to 105. On ERα, this molecule showed an IC50 of 116 nM.

With `N#Cc1cc(O)cc2c(Br)cc(-c3ccc(O)c(F)c3)nc12` [Cpd 57, 4-Bromo-8-cyano-2-(3-fluoro-4-hydroxyphenyl)quinolin-6-ol], on ERβ, the IC50 stood at 1.4 nM and the α/β was determined as 61. The molecule also registered an IC50 at ERα of 86 nM.

As for `C#Cc1cc(-c2ccc(O)c(F)c2)nc2c(C#N)cc(O)cc12` [Cpd 58, 8-Cyano-4-ethynyl-2-(3-fluoro-4-hydroxyphenyl)quinolin-6-ol], on ERβ, the IC50 is 1.3 nM and the α/β worked out at 67. Besides, the IC50 at ERα was 87 nM.

Turning to `N#Cc1ccc(-c2cc(O)cc3c(Cl)cc(-c4ccc(O)c(F)c4)nc23)cc1` [Cpd 61, 4-Chloro-8-(4-cyanophenyl)-2-(3-fluoro-4-hydroxyphenyl)quinolin-6-ol], at ERβ, the IC50 turned out to be 13 nM and the α/β was determined as 40. On ERα, this molecule showed an IC50 of 522 nM.
